This test has as its target Serine/threonine-protein phosphatase PP1-beta catalytic subunit (Homo sapiens) (UniProt P62140). Nature of the test: PubChem AID 463226. The note with it: purified PP1, 33P-phosphohistone dephosphorylation, scintillation.

The record followed here is PubChem BioAssay AID463226 (The Scripps Research Institute Molecular Screening Center, 2010).

Activity calls are given as the source filed them. No rule for the calls is given here.

Serine/threonine-protein phosphatase PP1-beta catalytic subunit (Homo sapiens), sequence (P62140 whole entry, looked up): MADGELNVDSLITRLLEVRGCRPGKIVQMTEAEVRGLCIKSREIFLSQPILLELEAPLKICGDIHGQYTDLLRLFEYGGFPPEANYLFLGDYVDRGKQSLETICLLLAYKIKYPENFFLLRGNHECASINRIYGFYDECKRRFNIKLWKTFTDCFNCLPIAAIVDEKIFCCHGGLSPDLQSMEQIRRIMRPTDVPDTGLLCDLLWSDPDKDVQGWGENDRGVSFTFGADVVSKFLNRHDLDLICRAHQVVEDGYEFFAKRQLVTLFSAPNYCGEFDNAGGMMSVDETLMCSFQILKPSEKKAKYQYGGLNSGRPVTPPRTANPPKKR

As for `O=C(O)c1n[nH]nc1-c1ccccc1`, the IC50 entry is “inactive”.

Regarding `O=C(O)C1C2CCC(O2)C1C(=O)NC1CCCCC1` (configuration not stated), the IC50 is 23.2 µM.
